Reference: patent US5210097A, “Xanthocillin X monomethyl ether derivative and antitumor agent containing the same” (Meiji Seika Kaisha Ltd., priority 1989, dated 1993)
Converted amounts (≈) assume the structure as drawn.

How the values were obtained:
Meth-A cells = experiment: Cytotoxicity in vitro (MTT assay, 3 days incubation); type: cell-based, murine; conditions: Mus musculus, 72 h, read-out: 50% inhibition concentration (IC50)
Description: The cytotoxic effect of each compound of the present invention in vitro was evaluated in the following manner. Dulbecco's modified MEM medium containing 10% (v/v) of fetal calf serum was used as a medium while Meth-A solid tumor was used as a tumor. The cytotoxic effect of each compound on this tumor was examined. Meth-A cells, which had been subcultured in a carbon dioxide gas incubator, were suspended in the above-mentioned medium so as to give a density of 5×10^4 cells/ml. 135 μl portions of the suspension thus obtained were poured into 96-well microtiter plates. Each test compound was dissolved in a small amount of DMF and diluted with Dulbecco's modified MEM medium to a predetermined concentration. 15 μl portions of test compound solutions at various concentrations were added thereto and then incubated in a carbon dioxide gas incubator for 3 days. After the completion of the incubation, the 50% inhibition concentration (IC50) was determined by the MTT assay method ["Igaku no Ayumi", vol. 128, 733-735 (1984)].

Meth-A solid tumor = experiment: Inhibition of tumor growth in vivo (Meth-A solid tumor, Balb/c mouse); set-up: species or system murine (female Balb/c mouse); conditions: intraperitoneal, once a day for 4 days; for Tumor weight: tumor weighed two weeks after transplantation, mean ± standard deviation; for Inhibition of tumor growth: two weeks after transplantation, versus control
Description: The inhibition of tumor growth by the compounds of the present invention in vivo were evaluated in the following manner. 10^6 cells of Meth-A murine tumor cells were transplanted to the dorsal subcutaneous part of a female Balb/c mouse aged 6 weeks. On the next day of the transplantation, a test compound at each concentrations was intraperitoneally administered to the animal. The compound was suspended in a 1% solution of carboxymethyl cellulose (CMC) and thoroughly mixed ultrasonically. Alternately, it was thoroughly ground in a mortar and then suspended in a CMC solution. Thus a sample for injection was prepared. The test compound was administered once a day for 4 days continuously. To a control group, a 1% solution of CMC was administered once a day for 4 days continuously. Two weeks after the transplantation, the dorsal tumor was taken out and weighed to thereby determine the inhibition of tumor growth.

[1] = Acute toxicity, intraperitoneal; conditions: mouse, in vivo, ip, female Balb/c mice aged 7 weeks
Ehrich ascites tumor = conditions: cited from earlier work
[2] = test system: conversion of arachidonic acid into prostaglandin H2; conditions: N. Kitahara et al., J. Antibiotics, 34, 1556-1561 (1981); cited from earlier work

Row | SMILES | IC50 (Meth-A cells) | LD50 [1] | Tumor weight (Meth-A solid tumor; 30 mg/kg/day) | Inhibition of tumor growth (Meth-A solid tumor; 30 mg/kg/day) | further results
1 | [C-]#[N+]C(=Cc1ccc(OC)cc1)C(=Cc1ccc(OCC(=O)OCC)cc1)[N+]#[C-] [Compound No. 1] | 0.64 µg/mL (≈ 1.65 µM) | 120 mg/kg | – | – | Tumor weight (Meth-A solid tumor; 10 mg/kg/day): 0.39 ± 0.08 g; Inhibition of tumor growth (Meth-A solid tumor; 10 mg/kg/day): 67.5%
2 | [C-]#[N+]C(=Cc1ccc(OC)cc1)C(=Cc1ccc(OCc2ccccc2)cc1)[N+]#[C-] [Compound No. 2, 1-(4'-benzyloxyphenyl)-4-(4'-methoxyphenyl)-2,3-diisocyano-1,3-butadiene] | 0.7 µg/mL (≈ 1.78 µM) | – | 0.22 ± 0.04 g | 67.6% | –
3 | [C-]#[N+]C(=Cc1ccc(OC)cc1)C(=Cc1ccc(OCCF)cc1)[N+]#[C-] [Compound No. 3, 1-[4'-(2"-fluoroethyl)oxyphenyl]-4-(4'-methoxyphenyl)-2,3-diisocyano-1,3-butadiene] | 1.5 µg/mL (≈ 4.31 µM) | > 120 mg/kg | – | – | –
4 | [C-]#[N+]C(=Cc1ccc(OC)cc1)C(=Cc1ccc(OCCCCCC)cc1)[N+]#[C-] [Compound No. 4, 1-(4'-n-hexyloxyphenyl)-4-(4'-methoxyphenyl)-2,3-diisocyano-1,3-butadiene] | – | – | 0.27 ± 0.20 g | 71.9% | –
5 | [C-]#[N+]C(=Cc1ccc(OC)cc1)C(=Cc1ccc(OCc2ccncc2)cc1)[N+]#[C-] [Compound No. 5, 1-[4'-(4"-pyridyl)methyloxyphenyl]-4-(4'-methoxyphenyl)-2,3-diisocyano-1,3-butadiene] | 0.7 µg/mL (≈ 1.78 µM) | – | – | – | –
6 | [C-]#[N+]C(=Cc1ccc(OC)cc1)C(=Cc1ccc(OCc2ccccn2)cc1)[N+]#[C-] [Compound No. 6, 1-[4'-(2"-pyridyl)methyloxyphenyl]-4-(4'-methoxyphenyl)-2,3-diisocyano-1,3-butadiene] | 0.24 µg/mL (≈ 0.61 µM) | > 120 mg/kg | – | – | –
7 | [C-]#[N+]C(=Cc1ccc(OC)cc1)C(=Cc1ccc(OCc2ccc(C)cc2)cc1)[N+]#[C-] [Compound No. 7, 1-[4'-(4"-toluyl)methyloxyphenyl]-4-(4'-methoxyphenyl)-2,3-diisocyano-1,3-butadiene] | 1.8 µg/mL (≈ 4.43 µM) | – | 0.60 ± 0.20 g | 68.4% | –
8 | [C-]#[N+]C(=Cc1ccc(OC)cc1)C(=Cc1ccc(OC(=O)c2ccccc2)cc1)[N+]#[C-] [Compound No. 8, 1-(4'-benzoyloxyphenyl)-4-(4'-methoxyphenyl)-2,3-diisocyano-1,3-butadiene] | 1.7 µg/mL (≈ 4.18 µM) | > 300 mg/kg | 1.40 ± 0.30 g | 26.3% | –
9 | [C-]#[N+]C(=Cc1ccc(OC)cc1)C(=Cc1ccc(OCc2ccc(Cl)cc2)cc1)[N+]#[C-] [Compound No. 9, 1-[4'-(4"-chlorophenyl)methyloxyphenyl]-4-(4'-methoxy-phenyl)-2,3-diisocyano-1,3-butadiene] | 1.8 µg/mL (≈ 4.22 µM) | > 300 mg/kg | 0.60 ± 0.50 g | 68.4% | –
10 | [C-]#[N+]C(=Cc1ccc(O)cc1)C(=Cc1ccc(OC)cc1)[N+]#[C-] [xanthocillin X monomethyl ether, 1-(4'-hydroxyphenyl)-2,3-diisocyano-4-(4'-methoxyphenyl)-1,3-butadiene] | – | – | – | – | proliferation of Ehrich ascites tumor (Ehrich ascites tumor; during administration): would suppress the proliferation of Ehrich ascites tumor; proliferation of cancer cells after stopping the administration (Ehrich ascites tumor; immediately after stopping the administration): the cancer cells would proliferate again immediately after stopping the administration of this compound; inhibition of biosynthesis of prostaglandin or thromboxane [2]: would inhibit the biosynthesis of prostaglandin or thromboxane
